# Legend:
# Experiment in all cases: relative viability (nuclei count vs DMSO), 5 days (fraction); higher = more cells survive
# SW 1573 = tested on: SW 1573
# Summary of the method: (§1)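 Values are medians from duplicate plates. Each reflects relative viability, defined as the nuclei count of treated wells over that of vehicle wells. Lung cancer cell lines in 1536-well plates were pin-tool dosed one day after seeding with one drug alone or with a fixed anchor-drug dose plus five library-drug doses (not always all listed) in √10 steps, then fixed, stained and imaged at 4× after 5 days.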
# LU99A = tested on: LU99A
# Summary of the method: as §1
# RERF-LC-KJ = tested on: RERF-LC-KJ
# Summary of the method: as §1
# HCC-78 = tested on: HCC-78
# Summary of the method: as §1
# SW 900 = tested on: SW 900
# Summary of the method: as §1
# NCI-H2342 = tested on: NCI-H2342
# Summary of the method: as §1
# EPLC-272H = tested on: EPLC-272H
# Summary of the method: as §1
# NCI-H1666 = tested on: NCI-H1666
# Summary of the method: as §1
# HCC-827 = tested on: HCC-827
# Summary of the method: as §1
# NCI-H23 = tested on: NCI-H23
# Summary of the method: as §1
# EMC-BAC-2 = tested on: EMC-BAC-2
# Summary of the method: as §1
# NCI-H1563 = tested on: NCI-H1563
# Summary of the method: as §1
# LXF-289 = tested on: LXF-289
# Summary of the method: as §1
# ChaGo-K-1 = tested on: ChaGo-K-1
# Summary of the method: as §1
# LCLC-103H = tested on: LCLC-103H
# Summary of the method: as §1
# PC-14 = tested on: PC-14
# Summary of the method: as §1
# NCI-H1975 = tested on: NCI-H1975
# Summary of the method: as §1
# LK-2 = tested on: LK-2
# Summary of the method: as §1
# SK-LU-1 = tested on: SK-LU-1
# Summary of the method: as §1
# EKVX = tested on: EKVX
# Summary of the method: as §1
# NCI-H322M = tested on: NCI-H322M
# Summary of the method: as §1
# NCI-H2126 = tested on: NCI-H2126
# Summary of the method: as §1
# NCI-H2405 = tested on: NCI-H2405
# Summary of the method: as §1
structure (smiles),measurement,setting,value
CCN(CC)CCCCNc1ncc2cc(-c3cc(OC)cc(OC)c3)c(NC(=O)NC(C)(C)C)nc2n1 + Nc1nc2[nH]cc(CCc3ccc(C(=O)N[C@@H](CCC(=O)O)C(=O)O)cc3)c2c(=O)[nH]1 [Pemetrexed] (partner 0.2 µM),relative viability,SW 1573; first compound 0.01 µM,0.858
same,relative viability,SW 1573; first compound 0.03162 µM,0.843
same,relative viability,SW 1573; first compound 0.1 µM,1.08
same,relative viability,SW 1573; first compound 0.3162 µM,0.944
same,relative viability,SW 1573; first compound 1 µM,0.832
same,relative viability,LU99A; first compound 0.01 µM,0.206
same,relative viability,LU99A; first compound 0.03162 µM,0.177
same,relative viability,LU99A; first compound 0.1 µM,0.214
same,relative viability,LU99A; first compound 0.3162 µM,0.177
same,relative viability,LU99A; first compound 1 µM,0.195
same,relative viability,RERF-LC-KJ; first compound 0.01 µM,0.497
same,relative viability,RERF-LC-KJ; first compound 0.03162 µM,0.487
same,relative viability,RERF-LC-KJ; first compound 0.1 µM,0.499
same,relative viability,RERF-LC-KJ; first compound 0.3162 µM,0.428
same,relative viability,RERF-LC-KJ; first compound 1 µM,0.514
same,relative viability,HCC-78; first compound 0.01 µM,0.919
same,relative viability,HCC-78; first compound 0.03162 µM,0.933
same,relative viability,HCC-78; first compound 0.1 µM,0.949
same,relative viability,HCC-78; first compound 0.3162 µM,0.947
same,relative viability,HCC-78; first compound 1 µM,0.89
same,relative viability,SW 900; first compound 0.01 µM,0.529
same,relative viability,SW 900; first compound 0.03162 µM,0.461
same,relative viability,SW 900; first compound 0.1 µM,0.517
same,relative viability,SW 900; first compound 0.3162 µM,0.509
same,relative viability,SW 900; first compound 1 µM,0.309
same,relative viability,NCI-H2342; first compound 0.01 µM,0.762
same,relative viability,NCI-H2342; first compound 0.03162 µM,0.777
same,relative viability,NCI-H2342; first compound 0.1 µM,0.803
same,relative viability,NCI-H2342; first compound 0.3162 µM,0.818
same,relative viability,NCI-H2342; first compound 1 µM,0.755
same,relative viability,EPLC-272H; first compound 0.01 µM,0.386
same,relative viability,EPLC-272H; first compound 0.03162 µM,0.271
same,relative viability,EPLC-272H; first compound 0.1 µM,0.334
same,relative viability,EPLC-272H; first compound 0.3162 µM,0.317
same,relative viability,EPLC-272H; first compound 1 µM,0.26
same,relative viability,NCI-H1666; first compound 0.01 µM,0.814
same,relative viability,NCI-H1666; first compound 0.03162 µM,0.796
same,relative viability,NCI-H1666; first compound 0.1 µM,0.783
same,relative viability,NCI-H1666; first compound 0.3162 µM,0.942
same,relative viability,NCI-H1666; first compound 1 µM,0.808
same,relative viability,HCC-827; first compound 0.01 µM,0.266
same,relative viability,HCC-827; first compound 0.03162 µM,0.261
same,relative viability,HCC-827; first compound 0.1 µM,0.265
same,relative viability,HCC-827; first compound 0.3162 µM,0.269
same,relative viability,HCC-827; first compound 1 µM,0.244
same,relative viability,NCI-H23; first compound 0.01 µM,0.666
same,relative viability,NCI-H23; first compound 0.03162 µM,0.566
same,relative viability,NCI-H23; first compound 0.1 µM,0.854
same,relative viability,NCI-H23; first compound 0.3162 µM,0.778
same,relative viability,NCI-H23; first compound 1 µM,0.646
same,relative viability,EMC-BAC-2; first compound 0.03162 µM,0.46
same,relative viability,EMC-BAC-2; first compound 0.1 µM,0.491
same,relative viability,EMC-BAC-2; first compound 0.3162 µM,0.479
same,relative viability,EMC-BAC-2; first compound 1 µM,0.489
same,relative viability,NCI-H1563; first compound 0.01 µM,0.72
same,relative viability,NCI-H1563; first compound 0.03162 µM,0.601
same,relative viability,NCI-H1563; first compound 0.1 µM,1.02
same,relative viability,NCI-H1563; first compound 0.3162 µM,0.737
same,relative viability,NCI-H1563; first compound 1 µM,0.633
same,relative viability,LXF-289; first compound 0.01 µM,0.923
same,relative viability,LXF-289; first compound 0.03162 µM,1.02
same,relative viability,LXF-289; first compound 0.1 µM,0.907
same,relative viability,LXF-289; first compound 0.3162 µM,0.884
same,relative viability,LXF-289; first compound 1 µM,0.849
same,relative viability,ChaGo-K-1; first compound 0.01 µM,0.269
same,relative viability,ChaGo-K-1; first compound 0.03162 µM,0.407
same,relative viability,ChaGo-K-1; first compound 0.1 µM,0.267
same,relative viability,ChaGo-K-1; first compound 0.3162 µM,0.272
same,relative viability,ChaGo-K-1; first compound 1 µM,0.265
same,relative viability,LCLC-103H; first compound 0.01 µM,0.444
same,relative viability,LCLC-103H; first compound 0.03162 µM,0.488
same,relative viability,LCLC-103H; first compound 0.1 µM,0.485
same,relative viability,LCLC-103H; first compound 0.3162 µM,0.457
same,relative viability,LCLC-103H; first compound 1 µM,0.533
same,relative viability,PC-14; first compound 0.01 µM,0.123
same,relative viability,PC-14; first compound 0.03162 µM,0.117
same,relative viability,PC-14; first compound 0.1 µM,0.184
same,relative viability,PC-14; first compound 0.3162 µM,0.139
same,relative viability,PC-14; first compound 1 µM,0.141
same,relative viability,NCI-H1975; first compound 0.01 µM,0.286
same,relative viability,NCI-H1975; first compound 0.03162 µM,0.306
same,relative viability,NCI-H1975; first compound 0.1 µM,0.318
same,relative viability,NCI-H1975; first compound 0.3162 µM,0.331
same,relative viability,NCI-H1975; first compound 1 µM,0.283
same,relative viability,LK-2; first compound 0.01 µM,0.267
same,relative viability,LK-2; first compound 0.03162 µM,0.272
same,relative viability,LK-2; first compound 0.1 µM,0.273
same,relative viability,LK-2; first compound 0.3162 µM,0.149
same,relative viability,LK-2; first compound 1 µM,0.145
same,relative viability,SK-LU-1; first compound 0.01 µM,0.971
same,relative viability,SK-LU-1; first compound 0.03162 µM,0.93
same,relative viability,SK-LU-1; first compound 0.1 µM,1.1
same,relative viability,SK-LU-1; first compound 0.3162 µM,1.18
same,relative viability,SK-LU-1; first compound 1 µM,0.854
same,relative viability,EKVX; first compound 0.03162 µM,0.354
same,relative viability,EKVX; first compound 0.1 µM,0.362
same,relative viability,EKVX; first compound 0.3162 µM,0.475
same,relative viability,EKVX; first compound 1 µM,0.379
same,relative viability,NCI-H322M; first compound 0.01 µM,0.612
same,relative viability,NCI-H322M; first compound 0.03162 µM,0.591
same,relative viability,NCI-H322M; first compound 0.1 µM,0.735
same,relative viability,NCI-H322M; first compound 0.3162 µM,0.642
same,relative viability,NCI-H322M; first compound 1 µM,0.567
same,relative viability,NCI-H2126; first compound 0.01 µM,0.646
same,relative viability,NCI-H2126; first compound 0.03162 µM,0.764
same,relative viability,NCI-H2126; first compound 0.1 µM,0.644
same,relative viability,NCI-H2126; first compound 0.3162 µM,0.661
same,relative viability,NCI-H2126; first compound 1 µM,0.749
same,relative viability,NCI-H2405; first compound 0.01 µM,0.994
same,relative viability,NCI-H2405; first compound 0.03162 µM,1.06
same,relative viability,NCI-H2405; first compound 0.1 µM,1.14
same,relative viability,NCI-H2405; first compound 0.3162 µM,1.3
same,relative viability,NCI-H2405; first compound 1 µM,1.04

# From the supplement of paper PMC10307832
